PubChem BioAssay AID248 (DTP/NCI, 2004)
Where “and” joins values, the source holds several entries; their conditions need not be identical. Equal values may be shown once. Toxic doses and inconclusive results are not listed. Rule as the data show it: active = T/C of 150% or more; inactive = T/C below 125%.

Test system: L1210 leukemia ip in BDF1 mice, survival T/C
Assay: NCI In Vivo Anticancer Drug Screen. Data for tumor model L1210 Leukemia (intraperitoneal) in B6D2F1 (BDF1) mice
Details: endpoint: mean survival time, higher = longer survival
How it was run: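 Survival endpoint. Drug-treated group vs vehicle group, expressed as T divided by C. Tumor passaged by transplantation.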

[1] = dose: 75.0 mg/kg/injection, schedule: Q01DX001 (ip), vehicle: saline
[2] = dose: 150.0 mg/kg/injection, schedule: Q01DX001 (ip), vehicle: saline
[3] = dose: 100.0 mg/kg/injection, schedule: Q01DX009 (ip), vehicle: Klucel (hydroxypropylcellulose) (HPC)
[4] = dose: 100.0 mg/kg/injection, schedule: Q04DX003 (ip), vehicle: Klucel (hydroxypropylcellulose) (HPC)
[5] = dose: 200.0 mg/kg/injection, schedule: Q04DX003 (ip), vehicle: Klucel (hydroxypropylcellulose) (HPC)
[6] = dose: 100.0 mg/kg/injection, schedule: Q01DX009 (ip), vehicle: saline with Tween-80
[7] = dose: 100.0 mg/kg/injection, schedule: Q04DX002 (ip), vehicle: saline with Tween-80
[8] = dose: 200.0 mg/kg/injection, schedule: Q04DX002 (ip), vehicle: saline with Tween-80
[9] = dose: 100.0 mg/kg/injection, schedule: Q04DX003 (ip), vehicle: saline with Tween-80
[10] = dose: 100.0 mg/kg/injection, schedule: Q01DX001 (ip), vehicle: saline
[11] = dose: 200.0 mg/kg/injection, schedule: Q01DX001 (ip), vehicle: saline
[12] = dose: 200.0 mg/kg/injection, schedule: Q01DX009 (ip), vehicle: Klucel (hydroxypropylcellulose) (HPC)
[13] = dose: 400.0 mg/kg/injection, schedule: Q01DX009 (ip), vehicle: Klucel (hydroxypropylcellulose) (HPC)
[14] = dose: 400.0 mg/kg/injection, schedule: Q04DX003 (ip), vehicle: Klucel (hydroxypropylcellulose) (HPC)

Measured: T/C

CCC1=C(CC2NCCc3cc(OC)c(OC)cc32)CC2c3ccccc3CCN2C1 (stereo unspecified)
inactive: dose: 4.0 mg/kg/injection, schedule: Q04DX003 (ip), vehicle: water 105 % of control and 106 % of control | dose: 8.0 mg/kg/injection, schedule: Q04DX003 (ip), vehicle: water 104 % of control and 108 % of control | dose: 16.0 mg/kg/injection, schedule: Q04DX003 (ip), vehicle: water 112 % of control and 100 % of control | dose: 32.0 mg/kg/injection, schedule: Q04DX003 (ip), vehicle: water 105 % of control and 98 % of control | dose: 64.0 mg/kg/injection, schedule: Q04DX003 (ip), vehicle: water 100 % of control | [1] 100 % of control and 97 % of control | [2] 101 % of control and 103 % of control

CCCCCCCCCCCCCCNCCCCCCCCCCCCCC
inactive: dose: 50.0 mg/kg/injection, schedule: Q01DX009 (ip), vehicle: Klucel (hydroxypropylcellulose) (HPC) 95 % of control | dose: 50.0 mg/kg/injection, schedule: Q04DX003 (ip), vehicle: Klucel (hydroxypropylcellulose) (HPC) 105 % of control | [3] 101 % of control | [4] 101 % of control | [5] 95 % of control

CCCCCCC1N(Cc2ccccc2N(C)C)CCCN1Cc1ccccc1N(C)C
inactive: [1] 94 % of control | [2] 94 % of control | dose: 300.0 mg/kg/injection, schedule: Q01DX001 (ip), vehicle: saline 89 % of control

CCC1(c2ccccc2)C(=O)N(CBr)C(=O)N(CBr)C1=O
inactive: [6] 90 % of control | [7] 92 % of control | [8] 100 % of control

COC(=O)C[CH2][Pb]([c]1ccccc1)([c]1ccccc1)[c]1ccccc1
inactive: [7] 102 % of control | [8] 113 % of control

NC1=NCCCN1
inactive: [9] 101 % of control

Nc1ncc([N+](=O)[O-])s1
inactive: dose: 25.0 mg/kg/injection, schedule: Q04DX002 (ip), vehicle: Klucel (hydroxypropylcellulose) (HPC) 95 % of control | dose: 50.0 mg/kg/injection, schedule: Q01DX001 (ip), vehicle: saline 98 % of control | dose: 50.0 mg/kg/injection, schedule: Q04DX002 (ip), vehicle: Klucel (hydroxypropylcellulose) (HPC) 98 % of control | [10] 98 % of control | dose: 100.0 mg/kg/injection, schedule: Q04DX002 (ip), vehicle: Klucel (hydroxypropylcellulose) (HPC) 115 % of control | [11] 98 % of control

O=C(Nc1ccc(C(=O)Nc2nccs2)cc1)c1ccc(C(=O)Nc2ccc(C(=O)Nc3nccs3)cc2)c(Cl)c1
inactive: dose: 4.4 mg/kg/injection, schedule: Q01DX Z (ip), vehicle: saline 106 % of control | dose: 6.6 mg/kg/injection, schedule: Q01DX Z (ip), vehicle: saline 97 % of control | dose: 10.0 mg/kg/injection, schedule: Q01DX Z (ip), vehicle: saline 97 % of control | dose: 15.0 mg/kg/injection, schedule: Q01DX Z (ip), vehicle: saline 93 % of control and 97 % of control and 106 % of control | dose: 22.5 mg/kg/injection, schedule: Q01DX Z (ip), vehicle: saline 104 % of control | dose: 30.0 mg/kg/injection, schedule: Q01DX Z (ip), vehicle: saline 100 % of control | dose: 33.75 mg/kg/injection, schedule: Q01DX Z (ip), vehicle: saline 111 % of control | dose: 50.6 mg/kg/injection, schedule: Q01DX Z (ip), vehicle: saline 93 % of control | dose: 60.0 mg/kg/injection, schedule: Q01DX Z (ip), vehicle: saline 97 % of control | dose: 120.0 mg/kg/injection, schedule: Q01DX Z (ip), vehicle: saline 98 % of control and 100 % of control | dose: 180.0 mg/kg/injection, schedule: Q01DX Z (ip), vehicle: saline 93 % of control | dose: 270.0 mg/kg/injection, schedule: Q01DX Z (ip), vehicle: saline 92 % of control | dose: 400.0 mg/kg/injection, schedule: Q01DX Z (ip), vehicle: saline 93 % of control

Cn1c(=O)n2n(c1=O)C1CCC2C2C=CC21 (stereo unspecified)
inactive: dose: 6.25 mg/kg/injection, schedule: Q01DX001 (ip), vehicle: saline 93 % of control | dose: 12.5 mg/kg/injection, schedule: Q01DX001 (ip), vehicle: saline 94 % of control

O=[N+]([O-])c1cccc(S(=O)(=O)Oc2ccc(-c3ccccc3)cc2)c1
inactive: [9] 96 % of control | dose: 200.0 mg/kg/injection, schedule: Q04DX003 (ip), vehicle: saline with Tween-80 91 % of control | dose: 400.0 mg/kg/injection, schedule: Q04DX003 (ip), vehicle: saline with Tween-80 90 % of control

O=C(NCCCCCCCCCCNC(=O)Nc1ccc(C2=NCCN2)cc1)Nc1ccc(C2=NCCN2)cc1
inactive: dose: 62.5 mg/kg/injection, schedule: Q01DX Z (ip), vehicle: carboxymethylcellulose (CMC) 98 % of control | dose: 125.0 mg/kg/injection, schedule: Q01DX Z (ip), vehicle: carboxymethylcellulose (CMC) 98 % of control | dose: 250.0 mg/kg/injection, schedule: Q01DX Z (ip), vehicle: carboxymethylcellulose (CMC) 106 % of control | dose: 500.0 mg/kg/injection, schedule: Q01DX Z (ip), vehicle: carboxymethylcellulose (CMC) 114 % of control

NC(N)=Nc1ccc(NC(=O)c2ccc(C(=O)Nc3ccc(N=C(N)N)cc3)cc2)cc1
inactive: dose: 1.8 mg/kg/injection, schedule: Q01DX Z (ip), vehicle: carboxymethylcellulose (CMC) 122 % of control | dose: 3.7 mg/kg/injection, schedule: Q01DX Z (ip), vehicle: carboxymethylcellulose (CMC) 104 % of control | dose: 7.5 mg/kg/injection, schedule: Q01DX Z (ip), vehicle: carboxymethylcellulose (CMC) 88 % of control

CCCCSP(Cc1ccccc1)SCCCC
inactive: [4] 96 % of control | [5] 94 % of control

O=[N+]([O-])c1ccccc1SNc1ccccc1
inactive: [3] 102 % of control | [4] 96 % of control | [12] 105 % of control | [13] 107 % of control | [14] 103 % of control

CC(=O)CC(=O)Nc1cccc(NC(=O)CC(C)=O)c1
inactive: dose: 100.0 mg/kg/injection, schedule: Q01DX001 (ip), vehicle: Klucel (hydroxypropylcellulose) (HPC) 99 % of control | dose: 200.0 mg/kg/injection, schedule: Q01DX001 (ip), vehicle: Klucel (hydroxypropylcellulose) (HPC) 94 % of control | dose: 400.0 mg/kg/injection, schedule: Q01DX001 (ip), vehicle: Klucel (hydroxypropylcellulose) (HPC) 101 % of control

O=C(O)/C(=C\C#Cc1ccccc1)c1ccccc1
inactive: [4] 94 % of control | [5] 100 % of control

CSC1CCCC(=O)C1 (stereo unspecified)
inactive: [3] 98 % of control | [4] 96 % of control | [12] 101 % of control | [5] 97 % of control | [13] 96 % of control | [14] 105 % of control

Cc1cc(/C=C/c2ccc(N(CCCl)CCCl)cc2)nc2ccccc12
inactive: [10] 107 % of control | [11] 113 % of control | dose: 400.0 mg/kg/injection, schedule: Q01DX001 (ip), vehicle: saline 103 % of control

OC(c1ccccc1)(c1ccccc1)c1ccsc1
inactive: dose: 50.0 mg/kg/injection, schedule: Q01DX009 (ip), vehicle: saline with Tween-80 86 % of control | [6] 86 % of control

CCOC(=O)C1(CCC#N)CC(C#N)(c2ccccc2)CCC1=O (stereo unspecified)
inactive: dose: 100.0 mg/kg/injection, schedule: Q04DX003 (ip), vehicle: acetone 98 % of control | dose: 200.0 mg/kg/injection, schedule: Q04DX003 (ip), vehicle: acetone 90 % of control | dose: 400.0 mg/kg/injection, schedule: Q04DX003 (ip), vehicle: acetone 93 % of control

O=CNc1nc(Cl)c2ncn(C3OC(COCc4ccccc4)C(OCc4ccccc4)C3OCc3ccccc3)c2n1 (stereo unspecified)
inactive: dose: 12.5 mg/kg/injection, schedule: Q01DX005 (ip), vehicle: saline 104 % of control | dose: 25.0 mg/kg/injection, schedule: Q01DX005 (ip), vehicle: saline 98 % of control | dose: 50.0 mg/kg/injection, schedule: Q01DX005 (ip), vehicle: saline 102 % of control | dose: 100.0 mg/kg/injection, schedule: Q01DX005 (ip), vehicle: saline 113 % of control | dose: 200.0 mg/kg/injection, schedule: Q01DX005 (ip), vehicle: saline 106 % of control

CCC#CC(O)(C(=O)OC)c1ccccc1 (stereo unspecified)
inactive: dose: 100.0 mg/kg/injection, schedule: Q01DX001 (ip), vehicle: carboxymethylcellulose (CMC) 100 % of control | dose: 200.0 mg/kg/injection, schedule: Q01DX001 (ip), vehicle: carboxymethylcellulose (CMC) 108 % of control | dose: 400.0 mg/kg/injection, schedule: Q01DX001 (ip), vehicle: carboxymethylcellulose (CMC) 96 % of control
